Here are results for 71 compounds from patent publication US8278337B2, “Substituted pyridines that are JNK inhibitors” (Merck Sharp & Dohme, priority 2006, dated 2012).

Structures are written as SMILES. Several values for one entry are separate records, joined by “and”; a condition that tells them apart may be missing. Equal values may be shown once.

For the assay, the target named is JNK1 (Homo sapiens, UniProt P45983). The experiment in a line: DELFIA kinase assay, JNK1. It counts as biochemical. As to conditions: DELFIA, biotinylated GST-ATF2 substrate, 10 minute pre-incubation, final ATP 7 uM. An outline of the steps: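 Enzyme (2 nM JNK1) was preincubated 10 min with 0–100 μM compound in HEPES pH 7.3 with 5% DMSO, then reacted 30 min at room temperature with biotinylated GST-ATF2 (6 ug/mL). Final ATP was 7 uM for JNK1, 4 uM for JNK2 and 2 uM for JNK3. Phospho-ATF2 was detected by DELFIA europium fluorescence (ex 340, em 615 nm).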
JNK1, sequence (P45983 whole entry, species assumed): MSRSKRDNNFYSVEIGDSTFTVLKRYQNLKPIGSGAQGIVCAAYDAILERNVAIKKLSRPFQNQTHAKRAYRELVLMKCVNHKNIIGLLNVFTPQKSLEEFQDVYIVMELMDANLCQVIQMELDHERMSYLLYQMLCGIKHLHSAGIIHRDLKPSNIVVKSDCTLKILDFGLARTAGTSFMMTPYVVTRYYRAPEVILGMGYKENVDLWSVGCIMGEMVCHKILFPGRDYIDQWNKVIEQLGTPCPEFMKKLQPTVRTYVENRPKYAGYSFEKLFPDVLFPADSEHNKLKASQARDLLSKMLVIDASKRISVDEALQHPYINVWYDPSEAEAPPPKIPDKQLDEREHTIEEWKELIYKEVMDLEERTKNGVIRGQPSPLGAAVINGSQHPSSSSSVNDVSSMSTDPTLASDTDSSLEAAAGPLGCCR

With `CC(C)(C)c1nnc(-c2cccc(C(=O)NCc3ccc(S(C)(=O)=O)cc3)n2)o1` [Compound 303], the IC50 is > 1000 nM and 1030 to 10000 nM. In the case of `CC(C)NC(=O)c1cccc(C(=O)NCc2ccn(-c3ccc(S(C)(=O)=O)cc3)n2)n1` [Compound 309] it was 102 to 959 nM; in that of `CC(C)NC(=O)c1cccc(C(=O)NCc2ccnn2-c2ccc(S(C)(=O)=O)cc2)n1` [Compound 310], > 1000 nM and 1030 to 10000 nM. The same measure for `CS(=O)(=O)c1ccc(CNC(=O)c2cccc(-n3cccn3)n2)cc1` [Compound 314]: > 1000 nM; for `CS(=O)(=O)c1ccc(CNC(=O)c2cccc(-n3ccc(C(F)(F)F)n3)n2)cc1` [Compound 315]: > 1000 nM and 1030 to 10000 nM. In the case of `CS(=O)(=O)c1ccc(CNC(=O)c2cccc(-c3ccccc3F)n2)cc1` [Compound 316] it was > 1000 nM and 1030 to 10000 nM. As for `CS(=O)(=O)c1ccc(CNC(=O)c2cccc(-c3ccccn3)n2)cc1` [Compound 317], the half-maximal inhibitory concentration (IC50) was > 1000 nM and 1030 to 10000 nM. The compound `CS(=O)(=O)c1ccc(CNC(=O)c2cccc(-n3cc(I)cn3)n2)cc1` [Compound 318] registered a half-maximal inhibitory concentration (IC50) of 102 to 959 nM. In the case of `CCOC(=O)c1cnn(-c2cccc(C(=O)NCc3ccc(S(C)(=O)=O)cc3)n2)c1` [Compound 319] it was > 1000 nM and 1030 to 10000 nM; in that of `Cc1cc(C)n(-c2cccc(C(=O)NCc3ccc(S(C)(=O)=O)cc3)n2)n1` [Compound 320], > 1000 nM and 1030 to 10000 nM; in that of `CS(=O)(=O)c1ccc(CNC(=O)c2cccc(-n3cc(-c4ccc(F)cc4)cn3)n2)cc1` [Compound 321], > 1000 nM and 1030 to 10000 nM. For `CS(=O)(=O)c1ccc(CNC(=O)c2cccc(-n3ncc4ccccc43)n2)cc1` [Compound 322], the 50% inhibitory concentration (IC50) was 102 to 959 nM.

For `Cc1cnn(-c2cccc(C(=O)NCc3ccc(S(C)(=O)=O)cc3)n2)c1` [Compound 323], the IC50 is 1030 to 10000 nM and > 1000 nM. `Cc1ccn(-c2cccc(C(=O)NCc3ccc(S(C)(=O)=O)cc3)n2)n1` [Compound 324]: the IC50 is 1030 to 10000 nM and > 1000 nM. The same measure for `Cc1ccnn1-c1cccc(C(=O)NCc2ccc(S(C)(=O)=O)cc2)n1` [Compound 325]: 1030 to 10000 nM and > 1000 nM; for `CS(=O)(=O)c1ccc(CNC(=O)c2cccc(-n3cncn3)n2)cc1` [Compound 326]: 1030 to 10000 nM and > 1000 nM; for `CS(=O)(=O)c1ccc(CNC(=O)c2cccc(-n3cnc(Br)c3)n2)cc1` [Compound 327]: 1030 to 10000 nM and > 1000 nM.

The compound `CS(=O)(=O)c1ccc(CNC(=O)c2cccc(-n3cc(Br)cn3)n2)cc1` [Compound 328] returned an IC50 of 102 to 959 nM. `COc1ccc(F)cc1-c1cccc(C(=O)NCc2ccc(S(C)(=O)=O)cc2)n1` [Compound 329] registered an IC50 of 102 to 959 nM. The compound `COc1cccc(-c2cccc(C(=O)NCc3ccc(S(C)(=O)=O)cc3)n2)c1F` [Compound 330] yielded an IC50 of 102 to 959 nM. `COc1ccc(-c2cccc(C(=O)NCc3ccc(S(C)(=O)=O)cc3)n2)c(F)c1` [Compound 331] returned an IC50 of 102 to 959 nM. The same measure for `CS(=O)(=O)c1ccc(CNC(=O)c2cccc(-c3ccc4c(c3)OCO4)n2)cc1` [Compound 332]: 102 to 959 nM; for `Cn1cc(-c2cccc(C(=O)NCc3ccc(S(C)(=O)=O)cc3)n2)cn1` [Compound 333]: > 1000 nM and 1030 to 10000 nM; for `CS(=O)(=O)c1ccc(CNC(=O)c2cccc(-n3cc(-c4ccccn4)cn3)n2)cc1` [Compound 334]: 102 to 959 nM.

In turn, `CS(=O)(=O)c1ccc(CNC(=O)c2cccc(-n3cc(-c4cnccn4)cn3)n2)cc1` [Compound 335] showed a half-maximal inhibitory concentration (IC50) of 102 to 959 nM. The same measure for `CC(C)(C)c1cnn(-c2cccc(C(=O)NCc3ccc(S(C)(=O)=O)cc3)n2)c1` [Compound 336]: 102 to 959 nM; for `CC(C)CNc1cccc(C(=O)NCc2ccc(S(C)(=O)=O)cc2)n1` [Compound 337]: > 1000 nM and 1030 to 10000 nM.

`CC(C)CN(C)c1cccc(C(=O)NCc2ccc(S(C)(=O)=O)cc2)n1` [Compound 338]: the concentration for half-maximal inhibition (IC50) is > 1000 nM and 1030 to 10000 nM.

For `CS(=O)(=O)c1ccc(CNC(=O)c2cccc(-c3cc4ccccc4[nH]3)n2)cc1` [Compound 339], the IC50 is > 1000 nM and 1030 to 10000 nM.

For `O=C(NCc1cnn(-c2cccc(C(F)(F)F)c2)c1)c1cccc(N2CCCC2)n1` [Compound 343], the IC50 was 1030 to 10000 nM and > 1000 nM. In the case of `O=C(NCc1cnn(-c2cccc(C(F)(F)F)c2)c1)c1cccc(N2Cc3ccccc3C2)n1` [Compound 344] it was > 1000 nM; in that of `O=C(NCc1cnn(-c2cccc(C(F)(F)F)c2)c1)c1cccc(N2CCOCC2)n1` [Compound 345], 1030 to 10000 nM and > 1000 nM. Regarding `O=C(NCc1cnn(-c2cccc(C(F)(F)F)c2)c1)c1cccc(N2CCC(c3ccccn3)C2)n1` (centres unmarked) [Compound 346], the IC50 was 1030 to 10000 nM and > 1000 nM. As to `O=C(NCc1cnn(-c2cccc(C(F)(F)F)c2)c1)c1cccc(-c2cc3ccccc3[nH]2)n1` [Compound 347], the IC50 was 1030 to 10000 nM and > 1000 nM.

`CC(=O)Nc1cccc(C(=O)NCc2cnn(-c3cccc(C(F)(F)F)c3)c2)n1` [Compound 353] displayed an IC50 of 102 to 959 nM.

In the case of `CC(C)C(=O)Nc1cccc(C(=O)NCc2cnn(-c3cccc(C(F)(F)F)c3)c2)n1` [Compound 354], the IC50 is 102 to 959 nM.

The compound `COC(=O)Nc1cccc(C(=O)NCc2cnn(-c3cccc(C(F)(F)F)c3)c2)n1` [Compound 355] had an IC50 of 102 to 959 nM. As to `NC(=O)Nc1cccc(C(=O)NCc2cnn(-c3cccc(C(F)(F)F)c3)c2)n1` [Compound 356], the half-maximal inhibitory concentration (IC50) lay in the range of 102 to 959 nM. The same measure for `CNc1cccc(C(=O)NCc2cnn(-c3cccc(C(F)(F)F)c3)c2)n1` [Compound 362]: 102 to 959 nM; for `CC(=O)N(C)c1cccc(C(=O)NCc2cnn(-c3cccc(C(F)(F)F)c3)c2)n1` [Compound 363]: > 1000 nM and 1030 to 10000 nM; for `CC(C)C(=O)N(C(=O)C(C)C)c1cccc(C(=O)NCc2cnn(-c3cccc(C(F)(F)F)c3)c2)n1` [Compound 364]: > 1000 nM and 1030 to 10000 nM. The same measure for `CC(C)C(=O)N(C)c1cccc(C(=O)NCc2cnn(-c3cccc(C(F)(F)F)c3)c2)n1` [Compound 365]: > 1000 nM and 1030 to 10000 nM; for `CCOC(=O)N1CCC(NC(=O)c2cccc(C(=O)NCc3ccc(S(C)(=O)=O)cc3)c2)CC1` [Compound 371]: > 1000 nM. The same measure for `CCOC(=O)N1CCC(NC(=O)c2cccc(C(=O)NCc3ccc4c(c3)OCO4)c2)CC1` [Compound 372]: > 1000 nM; for `CS(=O)(=O)c1ccc(CNC(=O)c2cccc(-c3nc4ccccc4[nH]3)n2)cc1` [Compound 376]: 102 to 959 nM.

For `CC(C)NC(=O)c1cccc(-c2nc3ccccc3[nH]2)n1` [Compound 377], the IC50 is > 1000 nM and 1030 to 10000 nM. Compound `O=C(NCc1nc2ccccc2s1)c1cccc(-c2nc3ccccc3[nH]2)n1` [Compound 378] registered an IC50 of 102 to 959 nM. `COc1cccc2ccc(C(=O)NCc3ccc(S(C)(=O)=O)cc3)nc12` [Compound 383]: the IC50 is 102 to 959 nM. The same measure for `CCNC(=O)Oc1cccc2ccc(C(=O)NCc3ccc(S(C)(=O)=O)cc3)nc12` [Compound 384]: > 1000 nM and 1030 to 10000 nM; for `CCOC(=O)N1CCC(NC(=O)c2cccc(Nc3cccnc3)n2)CC1` [Compound 388]: > 1000 nM; for `CCOC(=O)N1CCC(NC(=O)c2cccc(Nc3ccc4ncccc4c3)n2)CC1` [Compound 389]: > 1000 nM.

For the compound `CCOC(=O)N1CCC(NC(=O)c2cccc(Nc3ccc(N4CCOCC4)cc3)n2)CC1` [Compound 390], the IC50 was > 1000 nM.

Turning to `CCOC(=O)N1CCC(NC(=O)c2cccc(NCc3cccnc3)n2)CC1` [Compound 391], the IC50 is > 1000 nM.

Consider `CCOC(=O)N1CCC(NC(=O)c2cccc(NCc3ccc4c(c3)OCO4)n2)CC1` [Compound 392], for which the IC50 was > 1000 nM. Regarding `CCOC(=O)N1CCC(NC(=O)c2cccc(NCCc3ccncc3)n2)CC1` [Compound 393], the 50% inhibitory concentration (IC50) was > 1000 nM. As to `CCOC(=O)N1CCC(NC(=O)c2cccc(N(C)CCc3ccncc3)n2)CC1` [Compound 394], the IC50 is > 1000 nM. The same measure for `CCOC(=O)N1CCC(NC(=O)c2cccc(NCC3CCNCC3)n2)CC1` [Compound 395]: > 1000 nM.

On to `CCOC(=O)N1CCC(NC(=O)c2cccc(Nc3ccccn3)n2)CC1` [Compound 396], for which the IC50 is > 1000 nM.

Take `CCOC(=O)N1CCC(NC(=O)c2cccc(NC(C)=O)n2)CC1` [Compound 399]: the IC50 was > 1000 nM and 1030 to 10000 nM. Regarding `CCOC(=O)Nc1cccc(C(=O)NC2CCN(C(=O)OCC)CC2)n1` [Compound 400], the IC50 is > 1000 nM and 1030 to 10000 nM. The same measure for `CCOC(=O)N1CCC(NC(=O)c2cccc(NC(=O)Cc3ccc4c(c3)OCO4)n2)CC1` [Compound 401]: > 1000 nM and 1030 to 10000 nM; for `CCOC(=O)N1CCC(NC(=O)c2cccc(NC(=O)Cc3ccc(S(C)(=O)=O)cc3)n2)CC1` [Compound 402]: > 1000 nM and 1030 to 10000 nM. In the case of `C[C@@H](CO)NC(=O)c1cc(-c2ccccc2)cc(C(=O)NCc2ccc(S(C)(=O)=O)cc2)n1` [Compound 407], the IC50 was > 1000 nM and 1030 to 10000 nM. The same measure for `CCNC(=O)c1cc(Cl)cc(C(=O)NCc2ccc(S(C)(=O)=O)cc2)n1` [Compound 408]: > 1000 nM and 1030 to 10000 nM. For the compound `CCOC(=O)N1CCC(NC(=O)c2cc(-c3cccs3)cc(C(=O)NCc3ccc(S(C)(=O)=O)cc3)n2)CC1` [Compound 414], the IC50 was > 1000 nM and 1030 to 10000 nM. In the case of `CCNC(=O)c1cc(-c2cccs2)cc(C(=O)NCc2ccc(S(C)(=O)=O)cc2)n1` [Compound 415] it was > 1000 nM and 1030 to 10000 nM; in that of `C[C@@H](CO)NC(=O)c1cc(-c2cccs2)cc(C(=O)NCc2ccc(S(C)(=O)=O)cc2)n1` [Compound 416], > 1000 nM and 1030 to 10000 nM; in that of `C[C@H](CO)NC(=O)c1cc(-c2cccs2)cc(C(=O)NCc2ccc(S(C)(=O)=O)cc2)n1` [Compound 417], > 1000 nM and 1030 to 10000 nM. The same measure for `CC(C)NC(=O)c1cccc(C(=O)NCC2CCN(c3cccc(C#N)c3)CC2)n1` [Compound 419]: > 1000 nM and 1030 to 10000 nM.

As to `CC(C)NC(=O)c1cccc(C(=O)NCC2CCN(c3ccc(C#N)cc3)CC2)n1` [Compound 420], the IC50 was > 1000 nM and 1030 to 10000 nM. In the case of `CC(C)NC(=O)c1cccc(C(=O)NCC2CCN(c3cccc(S(C)(=O)=O)c3)CC2)n1` [Compound 421] it was > 1000 nM and 1030 to 10000 nM.
